Publication doi:10.1101/2023.10.24.563163v2, “Targeting cancer with small molecule pan-KRAS degraders” (biorxiv, 2024)
Where two headings read alike, the source gives them in different places. Blank lines part the entries; values can stand above or below the compound they belong to.

What was measured:
NCI-H358 [1] = experiment: cells; parameters: pERK levels by capillary electrophoresis; conditions: Homo sapiens, NCI-H358, 6 h
Method: (§1) Protein Detection by Capillary Electrophoresis Cells (50 000) were seeded the day before treatment into 96-well clear-flat bottom plates and incubated overnight (37 °C, humidified tissue culture incubator, 5% CO2). Compounds were added from DMSO stock solution using a digital dispenser and cells are incubated at 37 °C as specified (24 hours for KRAS degradation, 6 hours for determination of pERK levels). At the end of the incubation, medium was removed, cells washed with ice cold PBS, PBS removed and 50 µL lysis buffer (Meso Scale Discovery #R60TX-2) supplemented with 1:100 protease inhibitor solution, 1:100 phosphatase inhibitor I, 1:100 phosphatase inhibitor II (Meso Scale Discovery #R70AA-1), 0.5 µL/mL Benzonase (Novagen #70664-3) and 10 mM dithiothreitol added to each well. Plates with lysis buffer were immediately transferred to -80 °C freezer for at least 2 hours and then thawed on ice. Lysates were transferred to a 96 well V-bottom plate and insoluble debris was pelleted by centrifugation for 20 min. at 4 000 rpm. 40 µL of the supernatant were transferred to a fresh Eppendorf PCR plate. Analysis of protein levels was conducted using the Wes System, ProteinSimple (https://www.bio-techne.com/) as specified by the manufacturer. Briefly, Wes Master Mix (12-230 kDa WES Separation Module, 8 × 25 capillary cartridges, ProteinSimple #SM-W004) and molecular weight markers were prepared as specified in the manufacturer’s recommendations. To detect primary antibodies, anti-rabbit (Protein Simple #DM-001) or anti-mouse (Protein Simple #DM-002) detection modules were used. 7.2 µL lysate + 1.8 µL master mix were combined and heated to 95 °C for 5 min. Th

NCI-H358 [2] = experiment: cells; parameters: DUSP6 modulation; conditions: Homo sapiens, NCI-H358, 6 h; read-out: IC50 DUSP6
Excerpt: (§2) Next, we set out to test the ability of a single pan-KRAS degrading molecule, compound 4, to selectively suppress oncogenic signaling and proliferation in cancer cell lines driven by diverse KRAS mutants. To this end, we first confirmed degradation of KRAS by compound 4 in KRAS-dependent (GP2d, SW620 and NCI-H358 expressing KRAS^G12D, - G12V or -G12C, respectively) as well as in KRAS independent (A-375, HEK293) cell lines (Fig. 3A, fig. S4A). […] Both inhibition and degradation repressed the established markers of MAPK signaling pERK (fig. S4B-D) and DUSP6 (Fig. 3B, fig. S4E) in KRAS dependent cell lines. […] Neither degradation nor inhibition had appreciable antiproliferative effects in the KRAS independent cell lines A-375 and HEK293 (Fig. 3C, fig. S4F).

NCI-H358 [3] = experiment: cells; parameters: Inhibition of cell proliferation, 5 days; conditions: Homo sapiens, NCI-H358, 120 h; read-out: IC50 Proliferation NCI-H358
Excerpt: as §2, with “S4F). […] Pan-KRAS degradation impacts MAPK signaling and cancer cell proliferation.” for “S4F).”

KRAS = target: T1, KRAS (Homo sapiens, UniProt P01116, C118S/G12V); experiment: SPR, biotinylated KRAS immobilised; type: binding
T1 construct: residues 1-169, C118S background; His6 tag removed, E. coli; biotinylated for SPR

GP2d [4] = experiment: cells; parameters: Inhibition of cell proliferation, 5 days; conditions: 120 h, read-out: IC50 Proliferation GP2d
Excerpt: as §2, with “S4F). […] Pan-KRAS degradation impacts MAPK signaling and cancer cell proliferation.” for “S4F).”

A375 [5] = experiment: cells; parameters: Inhibition of cell proliferation, 5 days; conditions: Homo sapiens, A-375, 120 h; read-out: IC50 Proliferation A375
Excerpt: as §2, with “S4F). […] Pan-KRAS degradation impacts MAPK signaling and cancer cell proliferation.” for “S4F).”

HEK293 [6] = experiment: cells; parameters: Inhibition of cell proliferation, 5 days; conditions: Homo sapiens, HEK293, 120 h; read-out: IC50 Proliferation HEK293
Excerpt: as §2, with “S4F). […] Pan-KRAS degradation impacts MAPK signaling and cancer cell proliferation.” for “S4F).”

SW620 [7] = experiment: cells; parameters: Inhibition of cell proliferation, 5 days; conditions: Homo sapiens, SW-620, 120 h; read-out: IC50 Proliferation SW620
Excerpt: as §2, with “S4F). […] Pan-KRAS degradation impacts MAPK signaling and cancer cell proliferation.” for “S4F).”

GP2d [8] = experiment: cells; parameters: pERK levels by capillary electrophoresis; conditions: GP2d, 6 h
Method: as §1

A375 [9] = experiment: cells; parameters: pERK levels by capillary electrophoresis; conditions: Homo sapiens, A-375, 6 h
Method: as §1

HEK293 [10] = experiment: cells; parameters: pERK levels by capillary electrophoresis; conditions: Homo sapiens, HEK293, 6 h
Method: as §1

SW620 [11] = experiment: cells; parameters: pERK levels by capillary electrophoresis; conditions: Homo sapiens, SW-620, 6 h
Method: as §1

GP2d [12] = experiment: cells; parameters: DUSP6 modulation; conditions: GP2d, 6 h; read-out: IC50 DUSP6
Excerpt: as §2

SW620 [13] = experiment: cells; parameters: DUSP6 modulation; conditions: Homo sapiens, SW-620, 6 h; read-out: IC50 DUSP6
Excerpt: as §2

KRAS^WT = target: T2, KRAS^WT (Homo sapiens, UniProt P01116); experiment: cell-based; parameters: KRAS degradation by capillary electrophoresis immunodetection; conditions: A-375; read-out: Dmax 24 h A375 [%]
T2 construct: endogenous wild type
Method: as §1, with “[…] Next, we set out to test the ability of a single pan-KRAS degrading molecule, compound 4, to selectively suppress oncogenic signaling and proliferation in cancer cell lines driven by diverse KRAS mutants. To this end, we first confirmed degradation of KRAS by compound 4 in KRAS-dependent (GP2d, SW620 and NCI-H358 expressing KRAS^G12D, - G12V or -G12C, respectively) as well as in KRAS independent (A-375, HEK293) cell lines (Fig. 3A, fig. S4A). […] Both inhibition and degradation repressed the established markers of MAPK signaling pERK (fig. S4B-D) and DUSP6 (Fig. 3B, fig. S4E) in KRAS dependent cell lines. […] Neither degradation nor inhibition had appreciable antiproliferative effects in the KRAS independent cell lines A-375 and HEK293 (Fig. 3C, fig. S4F).” for “Th”

KRAS^G12D = KRAS^G12D (Homo sapiens, UniProt P01116, G12D); experiment: cell-based; parameters: endogenous; KRAS degradation by capillary electrophoresis immunodetection; conditions: GP2d; read-out: Dmax 24 h GP2d [%]
Method: as §1, with “[…] Next, we set out to test the ability of a single pan-KRAS degrading molecule, compound 4, to selectively suppress oncogenic signaling and proliferation in cancer cell lines driven by diverse KRAS mutants. To this end, we first confirmed degradation of KRAS by compound 4 in KRAS-dependent (GP2d, SW620 and NCI-H358 expressing KRAS^G12D, - G12V or -G12C, respectively) as well as in KRAS independent (A-375, HEK293) cell lines (Fig. 3A, fig. S4A). […] Both inhibition and degradation repressed the established markers of MAPK signaling pERK (fig. S4B-D) and DUSP6 (Fig. 3B, fig. S4E) in KRAS dependent cell lines. […] Neither degradation nor inhibition had appreciable antiproliferative effects in the KRAS independent cell lines A-375 and HEK293 (Fig. 3C, fig. S4F).” for “Th”

KRAS^G12V = KRAS^G12V (Homo sapiens, UniProt P01116, G12V); experiment: cell-based; parameters: endogenous; KRAS degradation by capillary electrophoresis immunodetection; conditions: SW-620; read-out: Dmax 24 h SW620 [%]
Method: as §1, with “[…] Next, we set out to test the ability of a single pan-KRAS degrading molecule, compound 4, to selectively suppress oncogenic signaling and proliferation in cancer cell lines driven by diverse KRAS mutants. To this end, we first confirmed degradation of KRAS by compound 4 in KRAS-dependent (GP2d, SW620 and NCI-H358 expressing KRAS^G12D, - G12V or -G12C, respectively) as well as in KRAS independent (A-375, HEK293) cell lines (Fig. 3A, fig. S4A). […] Both inhibition and degradation repressed the established markers of MAPK signaling pERK (fig. S4B-D) and DUSP6 (Fig. 3B, fig. S4E) in KRAS dependent cell lines. […] Neither degradation nor inhibition had appreciable antiproliferative effects in the KRAS independent cell lines A-375 and HEK293 (Fig. 3C, fig. S4F).” for “Th”

T1 sequence (P01116 1-169 G12V/C118S): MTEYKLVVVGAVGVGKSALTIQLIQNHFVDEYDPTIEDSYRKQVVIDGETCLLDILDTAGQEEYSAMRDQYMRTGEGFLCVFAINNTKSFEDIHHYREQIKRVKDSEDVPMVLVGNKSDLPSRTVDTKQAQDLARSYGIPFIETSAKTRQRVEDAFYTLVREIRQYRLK
Chain of KRAS^G12D (P01116 whole entry G12D): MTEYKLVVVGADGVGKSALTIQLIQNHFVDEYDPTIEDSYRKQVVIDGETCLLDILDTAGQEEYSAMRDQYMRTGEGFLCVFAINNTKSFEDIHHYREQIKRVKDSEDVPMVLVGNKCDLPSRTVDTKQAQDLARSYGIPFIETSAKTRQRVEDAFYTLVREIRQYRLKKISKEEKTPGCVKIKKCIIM
T2 sequence (P01116 whole entry): as the sequence (P01116 whole entry G12D) above, with D12G counted along it
Chain of KRAS^G12V (P01116 whole entry G12V): as the sequence (P01116 whole entry G12D) above, with D12V counted along it

- IC50 (NCI-H358 [1]): 29 nM
- IC50 (NCI-H358 [2]): 5.6 nM
- IC50 (NCI-H358 [3]): 12.3 nM
Structure (SMILES): C=CC(=O)N1CCN(c2nc(=O)n(-c3c(C)ccnc3C(C)C)c3nc(-c4c(O)cccc4F)c(F)cc23)[C@@H](C)C1 [sotorasib]

- Kd (KRAS): 25 nM
Structure (SMILES): C[C@H]1CNCCCN1c1nccc(-c2noc([C@@]3(C)CCCc4sc(N)c(C#N)c43)n2)n1 [compound 1]

- IC50 (A375 [5]): > 1000 nM
- IC50 (NCI-H358 [3]): 613 nM
- IC50 (SW620 [7]): 208 nM
Structure (SMILES): C[C@H](Oc1ccnc(-c2noc([C@@]3(C)CCCc4sc(N)c(C#N)c43)n2)n1)[C@@H]1CCCN1C [BI-2865]
- IC50 (GP2d [4]): 251 nM
- IC50 (HEK293 [6]): > 1000 nM

- IC50 (GP2d [8]): 1.3 nM
- IC50 (A375 [9]): > 1000 nM
- IC50 (SW620 [11]): > 1000 nM
- IC50 (GP2d [12]): 0.1 nM
- IC50 (SW620 [13]): 310 nM
- Dmax (KRAS^WT): < 15%
- Dmax (KRAS^G12D): < 15%
- Dmax (KRAS^G12V): < 15%
Structure (SMILES): C#Cc1c(F)ccc2cc(O)cc(-c3ncc4c(N5C[C@H]6CC[C@@H](C5)N6)nc(OC[C@@]56CCCN5C[C@H](F)C6)nc4c3F)c12 [MRTX1133]
- IC50 (HEK293 [10]): > 1000 nM
- IC50 (GP2d [4]): 2.4 nM
